Data from ChEMBL document CHEMBL4308841, “Synthesis, in vitro antiproliferative activity, and kinase inhibitory effects of pyrazole-containing diarylureas and diarylamides” (Eur J Med Chem, 2018).

Tests used:
SNB-75 = assay: Growth inhibition of human SNB75 cells incubated for 48 hrs by sulforhodamine B assay; format: functional, cell-based; details: SNB-75, 48 h
SF-295 = assay: Growth inhibition of human SF295 cells assessed as cell growth at 0.01 uM incubated for 48 hrs by sulforhodamine B assay relative to control; format: functional; details: SF-295, 48 h, read-out: Activity
CAKI-1 [1] = assay: Growth inhibition of human Caki1 cells assessed as cell growth at 0.01 uM incubated for 48 hrs by sulforhodamine B assay relative to control; format: functional; details: CAKI-1, 48 h, read-out: Activity
HCC 2998 = assay: Growth inhibition of human HCC2998 cells assessed as cell growth at 0.1 uM incubated for 48 hrs by sulforhodamine B assay relative to control; format: functional; details: HCC 2998, 48 h, read-out: Activity
CAKI-1 [2] = assay: Growth inhibition of human Caki1 cells assessed as cell growth at 0.1 uM incubated for 48 hrs by sulforhodamine B assay relative to control; format: functional; details: CAKI-1, 48 h, read-out: Activity
SF-539 = assay: Growth inhibition of human SF539 cells assessed as cell growth at 100 uM incubated for 48 hrs by sulforhodamine B assay relative to control; format: functional; details: SF-539, 48 h, read-out: Activity
KM12 [3] = assay: Growth inhibition of human KM12 cells assessed as cell growth at 0.1 uM incubated for 48 hrs by sulforhodamine B assay relative to control; format: functional; details: KM12, 48 h, read-out: Activity
NCI-H322M [4] = assay: Growth inhibition of human NCI-H322M cells incubated for 48 hrs by sulforhodamine B assay; format: functional, cell-based
U-251 [5] = assay: Growth inhibition of human U251 cells incubated for 48 hrs by sulforhodamine B assay; format: functional, cell-based; details: U-251, 48 h
Malme-3M [6] = assay: Growth inhibition of human MALME-3M cells assessed as cell growth at 0.1 uM incubated for 48 hrs by sulforhodamine B assay relative to control; format: functional; details: read-out: Activity
NCI-H460 = assay: Growth inhibition of human NCI-H460 cells assessed as cell growth at 100 uM incubated for 48 hrs by sulforhodamine B assay relative to control; format: functional; details: NCI-H460, 48 h, read-out: Activity
Hs-578T [7] = assay: Growth inhibition of human Hs578T cells assessed as cell growth at 0.01 uM incubated for 48 hrs by sulforhodamine B assay relative to control; format: functional; details: read-out: Activity
PC-3 = assay: Growth inhibition of human PC3 cells assessed as cell growth at 100 uM incubated for 48 hrs by sulforhodamine B assay relative to control; format: functional; details: PC-3, 48 h, read-out: Activity
HCT-15 = assay: Growth inhibition of human HCT15 cells assessed as cell growth at 0.01 uM incubated for 48 hrs by sulforhodamine B assay relative to control; format: functional; details: HCT-15, 48 h, read-out: Activity
MDA-MB-435 = assay: Growth inhibition of human MDA-MB-435 cells assessed as cell growth at 0.01 uM incubated for 48 hrs by sulforhodamine B assay relative to control; format: functional; details: MDA-MB-435, 48 h, read-out: Activity
SK-MEL-2 = assay: Growth inhibition of human SK-MEL-2 cells assessed as cell growth at 10 uM incubated for 48 hrs by sulforhodamine B assay relative to control; format: functional; details: SK-MEL-2, 48 h, read-out: Activity
UO-31 = assay: Growth inhibition of human UO31 cells incubated for 48 hrs by sulforhodamine B assay; format: functional, cell-based; details: UO-31, 48 h
Malme-3M [8] = assay: Growth inhibition of human MALME-3M cells assessed as cell growth at 0.01 uM incubated for 48 hrs by sulforhodamine B assay relative to control; format: functional; details: read-out: Activity
MOLT-4 = assay: Growth inhibition of human MOLT4 cells assessed as cell growth at 100 uM incubated for 48 hrs by sulforhodamine B assay relative to control; format: functional; details: MOLT-4, 48 h, read-out: Activity
SK-OV-3 = assay: Growth inhibition of human SKOV3 cells assessed as cell growth at 0.1 uM incubated for 48 hrs by sulforhodamine B assay relative to control; format: functional; details: SK-OV-3, 48 h, read-out: Activity
UACC-62 = assay: Growth inhibition of human UACC62 cells assessed as cell growth at 0.01 uM incubated for 48 hrs by sulforhodamine B assay relative to control; format: functional; details: UACC-62, 48 h, read-out: Activity
NCI-H322M [9] = assay: Growth inhibition of human NCI-H322M cells assessed as cell growth at 0.01 uM incubated for 48 hrs by sulforhodamine B assay relative to control; format: functional; details: read-out: Activity
Hs-578T [10] = assay: Growth inhibition of human Hs578T cells assessed as cell growth at 1 uM incubated for 48 hrs by sulforhodamine B assay relative to control; format: functional; details: read-out: Activity
OVCAR-4 = assay: Growth inhibition of human OVCAR4 cells assessed as cell growth at 0.01 uM incubated for 48 hrs by sulforhodamine B assay relative to control; format: functional; details: OVCAR-4, 48 h, read-out: Activity
NCI/ADR-RES = assay: Growth inhibition of human NCI/ADR-RES cells assessed as cell growth at 1 uM incubated for 48 hrs by sulforhodamine B assay relative to control; format: functional; details: read-out: Activity
786-0 = assay: Growth inhibition of human 786-0 cells assessed as cell growth at 0.1 uM incubated for 48 hrs by sulforhodamine B assay relative to control; format: functional; details: 786-0, 48 h, read-out: Activity
MDA-MB-231 = assay: Growth inhibition of human MDA-MB-231 cells assessed as cell growth at 100 uM incubated for 48 hrs by sulforhodamine B assay relative to control; format: functional; details: MDA-MB-231, 48 h, read-out: Activity
HOP-62 = assay: Growth inhibition of human HOP62 cells incubated for 48 hrs by sulforhodamine B assay; format: functional, cell-based; details: HOP-62, 48 h
KM12 [11] = assay: Growth inhibition of human KM12 cells assessed as cell growth at 0.01 uM incubated for 48 hrs by sulforhodamine B assay relative to control; format: functional; details: KM12, 48 h, read-out: Activity
U-251 [12] = assay: Growth inhibition of human U251 cells assessed as cell growth at 100 uM incubated for 48 hrs by sulforhodamine B assay relative to control; format: functional; details: U-251, 48 h, read-out: Activity
[13] = read-out: pLC50 (the source's name) (converted)
[14] = read-out: LC50 (the source's name)

With `COc1cc(Cl)cc(-c2nn(-c3cccc(NC(=O)Nc4cc(C(F)(F)F)cc(C(F)(F)F)c4)c3)cc2-c2ccncc2)c1` the IC50 (SNB-75) was 850 nM, the GI50 (SNB-75; read-out: GI50) was 848 nM and the TGI (SNB-75; read-out: TGI) was 5830 nM. For the same compound, the GI50 (SNB-75; read-out: pGI50 (converted)) was 851 nM, the CC50 (SNB-75; [13]) was 70800 nM and the TGI (SNB-75; read-out: pTGI (converted)) was 5890 nM. It also gave a growth at 0.01 µM (SF-295) of 95%, a growth at 0.01 µM (CAKI-1 [1]) of 97% and a growth at 0.1 µM (HCC 2998) of 105%. It also gave a growth at 0.1 µM (CAKI-1 [2]) of 95%, a growth at 100 µM (SF-539) of -73% and a growth at 0.1 µM (KM12 [3]) of 98%. The IC50 (NCI-H322M [4]) was 930 nM, the GI50 (NCI-H322M [4]; read-out: GI50) was 933 nM and the TGI (NCI-H322M [4]; read-out: TGI) was 10900 nM. It also gave a GI50 (NCI-H322M [4]; read-out: pGI50 (converted)) of 933 nM, a CC50 (NCI-H322M [4]; [13]) of 46800 nM and a TGI (NCI-H322M [4]; read-out: pTGI (converted)) of 11000 nM. For the same compound, the IC50 (U-251 [5]) was 320 nM, the GI50 (U-251 [5]; read-out: GI50) was 324 nM and the CC50 (U-251 [5]; [14]) was 43 nM. The TGI (U-251 [5]; read-out: TGI) was 1310 nM, the GI50 (U-251 [5]; read-out: pGI50 (converted)) was 324 nM and the CC50 (U-251 [5]; [13]) was 4370 nM. For the same compound, the TGI (U-251 [5]; read-out: pTGI (converted)) was 1320 nM, the growth at 0.1 µM (Malme-3M [6]) was 87% and the growth at 100 µM (NCI-H460) was -84%. It also gave a growth at 0.01 µM (Hs-578T [7]) of 97%, a growth at 100 µM (PC-3) of -44% and a growth at 0.01 µM (HCT-15) of 93%. For the same compound, the growth at 0.01 µM (MDA-MB-435) was 97%, the growth at 10 µM (SK-MEL-2) was -38.1% and the IC50 (UO-31) was 260 nM. The GI50 (UO-31; read-out: GI50) was 254 nM, the CC50 (UO-31; [14]) was 59.7 nM and the TGI (UO-31; read-out: TGI) was 1580 nM. For the same compound, the GI50 (UO-31; read-out: pGI50 (converted)) was 263 nM, the CC50 (UO-31; [13]) was 6920 nM and the TGI (UO-31; read-out: pTGI (converted)) was 1580 nM. The growth at 0.01 µM (Malme-3M [8]) was 92%, the growth at 100 µM (MOLT-4) was -34% and the growth at 0.1 µM (SK-OV-3) was 105%. The growth at 0.01 µM (UACC-62) was 96%, the growth at 0.01 µM (NCI-H322M [9]) was 100% and the growth at 1 µM (Hs-578T [10]) was 50%. For the same compound, the growth at 0.01 µM (OVCAR-4) was 93%, the growth at 1 µM (NCI/ADR-RES) was 48% and the growth at 0.1 µM (786-0) was 92%. For the same compound, the growth at 100 µM (MDA-MB-231) was -70%, the IC50 (HOP-62) was 650 nM and the GI50 (HOP-62; read-out: GI50) was 648 nM. The CC50 (HOP-62; [14]) was 7140 nM, the TGI (HOP-62; read-out: TGI) was 2390 nM and the GI50 (HOP-62; read-out: pGI50 (converted)) was 646 nM. The CC50 (HOP-62; [13]) was 7080 nM, the TGI (HOP-62; read-out: pTGI (converted)) was 2400 nM and the growth at 0.01 µM (KM12 [11]) was 97%. For the same compound, the growth at 100 µM (U-251 [12]) was -92%.
